In patent publication US20070066680A1, “Benzofurans and benzothiophenes” (priority 2003, published 2007):
Marks after values point to notes of the source that are not given here.

Assays:
insulin secretion = assay: Test of insulin secretion according to Endocrinology, 1992 vol. 130 (1) pp. 167-178; format: cell-based; conditions: Rattus norvegicus, INS1; compounds tested at 10^−5 M; read-out: SEC INS1 (% of insulin secretion)
Method: Test of Insulin Secretion According to the Method Described in Endocrinology, 1992 vol. 130 (1) pp. 167-178
The insulin-secreting activities are collated in Table B. The compounds according to the invention were tested at a concentration of 10^−5 M.

[1] = system: isolated islets of Langerhans; assay: Insulin secretion in isolated rat islets of Langerhans, static incubation, RIA; format: cell-based; conditions: 90 minutes incubation, stimulation if factor >= 130%; for Insulin secretion stimulation factor, Product + G2.8 mM: glucose 2.8 mM; for Insulin secretion stimulation factor, Product + G8 mM: glucose 8 mM
Method: Study of the Activity on Isolated Rat Islets
Effect of the chemical compounds on insulin secretion as a function of the glucose concentration, in vitro, in isolated islets of Langerhans in static incubation (Table C):
The islets of Langerhans obtained by digestion of exocrine pancreatic tissue with collagenase, and then purified on Ficoll gradient, are incubated for 90 minutes in the presence of two concentrations of glucose, (2.8 mM or 8 mM), in the presence or absence of the chemical compound. The insulin secretion is assayed by RIA in the incubation medium.
The potential of the various chemical compounds to stimulate insulin secretion is estimated by calculating the stimulation factor*.
A compound stimulates the secretion of insulin if this factor is greater than or equal to 130% for a given dose of glucose. [formula] • where: • G=secretion of insulin (pmol/min. islet) in the presence of glucose alone
G+product=secretion of insulin (pmol/min. islet) in the presence of the same concentration of glucose and of the test chemical compound.

NOSTZ diabetic rats = assay: Antidiabetic activity (glycaemia) in NOSTZ diabetic rats; format: in vivo, rat; conditions: repeated for 4 days, blood two hours after the fourth treatment
Method: Study of the Antidiabetic Activity in NOSTZ rats Effect/Dose of compound 15, in vivo, in the case of NOSTZ diabetic rats (Table D): NOSTZ rats, made diabetic by injection of steptozotocin on the day of birth (Portha et al.; 1974), are treated, orally, daily by administration of 50-100-200 mg/kg of body weight of compound 15, of 200 mg/kg of metformin (reference antidiabetic agent) or of methylcellulose (controls). Blood samples are taken from the anaesthetized animal two hours after the fourth treatment. The glycaemia is measured via the colorimetric method using glucose dehydrogenase. The antidiabetic activity of the compounds of the formula (I) orally was determined on an experimental model of non-insulin-dependent diabetes, induced in rats with steptozotocin. The model of non-insulin-dependent diabetes is obtained in the rats by means of a neonatal injection of steptozotocin. The diabetic rats used are eight weeks old. The animals are housed, from the day of birth to the day of the experiment, in an animal house at a regulated temperature of 21 to 22° C. and subjected to a fixed cycle of light (from 7 a.m. to 7 p.m.) and darkness (from 7 p.m. to 7 a.m.). Their food consisted of a maintenance diet, and water and food were given “ad libitum”, with the exception of fasting two hours before the tests, during which period the food is removed (post-absorptive state). The rats are treated orally for one (D1) or four (D4) days with the test product. Two hours after the final administration of the product and 30 minutes after anaesthetizing the animals with pentobarbital sodium (Nembutal®), a 300 μl blood sample is taken from the end of the tail.

Compound | activity at 10 µM (insulin secretion) [%] | further results
N#Cc1ccc(C(=O)c2sc3ccccc3c2OCc2ccccc2C#N)cc1 [Product 42] | 283 | 
COc1ccccc1C(=O)COc1c(C(=O)c2ccc(C#N)cc2)sc2ccccc12 [Product 70] | 189 | 
COc1cccc(C(=O)COc2c(C(=O)c3ccccc3)sc3ccccc23)c1 [Product 8] | 193 | 
CC(C)(C)C(=O)COc1c(C(=O)c2ccccc2)sc2ccccc12 [Product 15, 1-(2-benzoylbenzo[b]thiophen-3-yloxy)-3,3-dimethylbutan-2-one] | 207 | Insulin secretion stimulation factor, Product + G2.8 mM ([1]; product 10^−5 M): 119%; Insulin secretion stimulation factor, Product + G8 mM ([1]; product 10^−5 M): 152%; Insulin secretion stimulation factor, Product + G2.8 mM ([1]; product 10^−6 M): 125%; Insulin secretion stimulation factor, Product + G8 mM ([1]; product 10^−6 M): 183%; Percentage of variation of glycaemia relative to the controls (NOSTZ diabetic rats; 50 mg/kg/day orally): −13%*; Percentage of variation of glycaemia relative to the controls (NOSTZ diabetic rats; 100 mg/kg/day orally): −23%**; Percentage of variation of glycaemia relative to the controls (NOSTZ diabetic rats; 200 mg/kg/day orally): −18%**
Cc1ccc(C(=O)COc2c(C(=O)c3ccc(C#N)cc3)sc3ccccc23)cc1 [Product 72] | 185 | 
O=C(COc1c(C(=O)c2ccccc2)sc2ccccc12)c1ccc(Cl)cc1 [Product 1] | 206 | Insulin secretion stimulation factor, Product + G2.8 mM ([1]; product 10^−5 M): 98%; Insulin secretion stimulation factor, Product + G8 mM ([1]; product 10^−5 M): 135%
COc1ccccc1C(=O)COc1c(C(=O)c2ccccc2)sc2ccccc12 [Product 3] | 244 | 
N#Cc1ccc(C(=O)c2sc3ccccc3c2OCc2c(Cl)cccc2Cl)cc1 [Product 55] | 174 | 
CS(=O)(=O)c1ccc(COc2c(C(=O)c3ccc(C#N)cc3)sc3ccccc23)cc1 [Product 66] | 202 | 
N#Cc1ccc(C(=O)c2sc3ccccc3c2OCc2cccc(C#N)c2)cc1 [Product 43] | 257 | Insulin secretion stimulation factor, Product + G2.8 mM ([1]; product 10^−5 M): 108%; Insulin secretion stimulation factor, Product + G8 mM ([1]; product 10^−5 M): 135%
N#Cc1ccc(C(=O)c2sc3ccccc3c2OCc2ccccc2)cc1 [Product 59] | 229 | 
COc1ccc(C(=O)COc2c(C(=O)c3ccccc3)sc3ccccc23)c(OC)c1 [Product 14] | 287 | 
COc1ccccc1C(=O)COc1c(C(=O)c2ccccc2)oc2ccccc12 [Product 86] | 164 | 
CN(C)C(=N)N=C(N)N [metformin, reference compound] |  | Percentage of variation of glycaemia relative to the controls (NOSTZ diabetic rats; 200 mg/kg/day orally): −29%**
N#Cc1ccc(C(=O)c2sc3ccccc3c2OCC(=O)c2ccccc2)cc1 [Product 69] | 179 | 
